Measured values reported in ChEMBL document CHEMBL5331122, “Structure-Activity Relationship Study of Antimicrobial Peptide PE2 Delivered Novel Linear Derivatives with Potential of Eradicating Biofilms and Low Incidence of Drug Resistance” (J Med Chem, 2023).
Converted amounts (≈) assume the structure as drawn.

Tests used:
[1] = test system: Escherichia coli; assay: Antibacterial activity against Escherichia coli ATCC 25922 assessed as bacterial growth inhibition incubated for 18 hrs by broth microdilution method; type: functional
[2] = test system: Klebsiella pneumoniae; assay: Antibacterial activity against Klebsiella pneumoniae ATCC 700603 assessed as bacterial growth inhibition incubated for 18 hrs by broth microdilution method; type: functional
[3] = test system: Pseudomonas aeruginosa; assay: Antibacterial activity against Pseudomonas aeruginosa ATCC 27853 assessed as bacterial growth inhibition incubated for 18 hrs by broth microdilution method; type: functional
[4] = test system: Staphylococcus aureus; assay: Antibacterial activity against Staphylococcus aureus ATCC 25923 assessed as bacterial growth inhibition incubated for 18 hrs by broth microdilution method; type: functional
[5] = test system: Bacillus subtilis; assay: Antibacterial activity against Bacillus subtilis ATCC 23857 assessed as bacterial growth inhibition incubated for 18 hrs by broth microdilution method; type: functional
[6] = test system: Enterococcus faecalis; assay: Antibacterial activity against Enterococcus faecalis ATCC 29212 assessed as bacterial growth inhibition incubated for 18 hrs by broth microdilution method; type: functional
[7] = test system: Erythrocyte; assay: Hemolytic activity in mouse red blood cell assessed as hemolysis incubated for 1 hr; type: toxicity, cell-based; details: dose 4-256 µg/ml

| Structure (SMILES) | MIC [1] | MIC [2] | MIC [3] | MIC [4] | MIC [5] | MIC [6] | HC10 [7] |
| --- | --- | --- | --- | --- | --- | --- | --- |
| CCCCCCCCCCCCCC(=O)N[C@@H](CCN)C(=O)N[C@H](C(=O)N[C@@H](CCN)C(=O)N[C@H](Cc1ccccc1)C(=O)N[C@@H](CC(C)C)C(=O)N[C@@H](CCN)C(=O)N[C@@H](C(=O)N[C@@H](CC(C)C)C(=O)N[C@H](C(N)=O)[C@@H](C)O)C(C)C)[C@@H](C)CC | 128 µg/mL (≈ 105 µM) | > 128 µg/mL | 32 µg/mL (≈ 26.3 µM) | 32 µg/mL (≈ 26.3 µM) | 16 µg/mL (≈ 13.2 µM) | 16 µg/mL (≈ 13.2 µM) | 32 µg/mL |
| CN[C@H](CC(C)C)C(=O)N[C@H]1C(=O)N[C@@H](CC(N)=O)C(=O)N[C@H]2C(=O)N[C@H]3C(=O)N[C@H](C(=O)N[C@H](C(=O)O)c4cc(O)cc(O)c4-c4cc3ccc4O)[C@H](O)c3ccc(c(Cl)c3)Oc3cc2cc(c3O[C@@H]2O[C@H](CO)[C@@H](O)[C@H](O)[C@H]2O[C@H]2C[C@](C)(N)[C@H](O)[C@H](C)O2)Oc2ccc(cc2Cl)[C@H]1O [VANCOMYCIN] | 128 µg/mL (≈ 88.3 µM) | > 128 µg/mL | > 128 µg/mL | – | < 1 µg/mL | – | – |
| NC[C@H]1O[C@H](O[C@H]2[C@H](O)[C@@H](O[C@H]3O[C@H](CO)[C@@H](O)[C@H](N)[C@H]3O)[C@H](N)C[C@@H]2N)[C@H](O)[C@@H](O)[C@@H]1O [KANAMYCIN] | 4 µg/mL (≈ 8.26 µM) | 32 µg/mL (≈ 66 µM) | > 128 µg/mL | < 1 µg/mL | < 1 µg/mL | 16 µg/mL (≈ 33 µM) | – |

Continued, in another order:

| MIC [1] | MIC [2] | MIC [3] | MIC [4] | MIC [5] | MIC [6] | Structure (SMILES) | HC10 [7] |
| --- | --- | --- | --- | --- | --- | --- | --- |
| 64 µg/mL (≈ 58.1 µM) | 128 µg/mL (≈ 116 µM) | 32 µg/mL (≈ 29.1 µM) | > 128 µg/mL | 32 µg/mL (≈ 29.1 µM) | > 128 µg/mL | C/C=C(/NC(=O)[C@H](CC(C)C)NC(=O)[C@H](NC(=O)[C@H](CCN)NC(=O)[C@H](CC(C)C)NC(=O)[C@@H](Cc1ccccc1)NC(=O)[C@H](CCN)NC(=O)[C@@H](NC(=O)[C@H](CCN)NC(=O)C[C@@H](O)CCC)[C@@H](C)CC)C(C)C)C(=O)O | 512 µg/mL |
| 4 µg/mL (≈ 3.41 µM) | 2 µg/mL (≈ 1.71 µM) | 2 µg/mL (≈ 1.71 µM) | 2 µg/mL (≈ 1.71 µM) | 2 µg/mL (≈ 1.71 µM) | 8 µg/mL (≈ 6.82 µM) | CCCCCCCCCCC(=O)N[C@@H](CCN)C(=O)N[C@H](C(=O)N[C@@H](CCN)C(=O)N[C@H](Cc1ccccc1)C(=O)N[C@@H](CC(C)C)C(=O)N[C@@H](CCN)C(=O)N[C@@H](C(=O)N[C@@H](CC(C)C)C(=O)N[C@H](C(N)=O)[C@@H](C)O)C(C)C)[C@@H](C)CC | 16 µg/mL |
| 4 µg/mL (≈ 3.54 µM) | 8 µg/mL (≈ 7.08 µM) | 8 µg/mL (≈ 7.08 µM) | 8 µg/mL (≈ 7.08 µM) | 4 µg/mL (≈ 3.54 µM) | 16 µg/mL (≈ 14.2 µM) | CCCCCCCC(=O)N[C@@H](CCN)C(=O)N[C@H](C(=O)N[C@@H](CCN)C(=O)N[C@H](Cc1ccccc1)C(=O)N[C@@H](CC(C)C)C(=O)N[C@@H](CCN)C(=O)N[C@@H](C(=O)N[C@@H](CC(C)C)C(=O)N[C@H](C(N)=O)[C@@H](C)O)C(C)C)[C@@H](C)CC | 128 µg/mL |
| 4 µg/mL (≈ 3.58 µM) | 8 µg/mL (≈ 7.17 µM) | 16 µg/mL (≈ 14.3 µM) | 16 µg/mL (≈ 14.3 µM) | 4 µg/mL (≈ 3.58 µM) | 64 µg/mL (≈ 57.3 µM) | CCCCCCC(=O)N[C@@H](CCN)C(=O)N[C@H](C(=O)N[C@@H](CCN)C(=O)N[C@H](Cc1ccccc1)C(=O)N[C@@H](CC(C)C)C(=O)N[C@@H](CCN)C(=O)N[C@@H](C(=O)N[C@@H](CC(C)C)C(=O)N[C@H](C(N)=O)[C@@H](C)O)C(C)C)[C@@H](C)CC | 256 µg/mL |
| 4 µg/mL (≈ 3.49 µM) | 8 µg/mL (≈ 6.99 µM) | 8 µg/mL (≈ 6.99 µM) | 8 µg/mL (≈ 6.99 µM) | 4 µg/mL (≈ 3.49 µM) | 8 µg/mL (≈ 6.99 µM) | CCCCCCCCC(=O)N[C@@H](CCN)C(=O)N[C@H](C(=O)N[C@@H](CCN)C(=O)N[C@H](Cc1ccccc1)C(=O)N[C@@H](CC(C)C)C(=O)N[C@@H](CCN)C(=O)N[C@@H](C(=O)N[C@@H](CC(C)C)C(=O)N[C@H](C(N)=O)[C@@H](C)O)C(C)C)[C@@H](C)CC | 64 µg/mL |
